Data: patent US6770738B1, “Higher order structure and binding of peptide nucleic acids” (ISIS Pharmaceuticals, Inc., priority 1992, dated 2004)

Key:
[1] = system: pA98 plasmid relaxed circles (rcDNA); test: Unwinding of closed circular DNA with PNA; assay type: binding
Protocol: Relaxed circular DNA was prepared by treating ordinary supercoiled plasmid DNA with an extract containing DNA topoisomerase I, as described by V. I. Lyamichev, et. al., J. Biomolec. Struct. Dynamics, 3, 327-338 (1985). DNA-PNA complexes were obtained by incubation of 1-2 μg of DNA in 5-20 μL TE with 0.4 optical units./mL of PNA for 4 hours at 20-22° C. This corresponded to about 10 times molar excess of PNA to its potential binding sites. Agarose (1.5%) gel electrophoresis was performed in the TAE buffer containing 1 μg/mL of chloroquine at 10° C. for 15 hours at 1.5 V/cm. Tw—dimensional gel electrophoresis was preformed in the first direction (from top to bottom) in the TAE buffer and in the second direction (from left to right) in the same buffer with addition of 1 μg/mL of chloroquine.
In this example, the efficiency of PNA T10 incorporating into the DNA duplex and displacing the DNA T-strand in solution was shown by unwinding of closed circular DNA by PNA. The pA98 plasaid (Example 16) was prepared in the form of relaxed circles (rcDNA). It was expected that complexing with PHA would unwind about 10 turns of the DNA duplex. Because of topological constraints (the two strands in rcDNA were closed and therefore topologically linked), this unwinding would make the rcDNA molecules behave as if they were positively supercoiled by 10 superturns. […]

[2] = system: pT9CT9C plasmid linearized by CfrlOI; test: Site-specific S1 nuclease digestion of plasmid with two PNA sites complexed with PNA; assay type: biochemical; conditions: 30 units S1 nuclease; target sites are for T5CT4
Description: was cloned into the Sal1 site of the pUC19 plasmid. This plasmid, which contained two binding sites for PNA H-T5CT4-LysNH2 (SEQ ID NO:6) separated by six base pairs, was designated pT9CT9C. Strand displacement in the two T5CT4 sites led to opening of the entire region, including the sequence GTCGAC/GACGAC, providing a substrate for the S1 nuclease in both strands. As control, a pT9C-5 plasmid was used, which carried only one T5CT4 (SEQ ID NO:6) insert cloned into the SalI site of the pUC19 plasmid.
cloned in the Sal1 site of the pUC19 polylinker. The pT9C-5 plasmid carried the single insert A5GA4/CT5 (SEQ ID NO:4) cloned in the same site. The PNA-DNA complexes were prepared as described in Example 2 with the only difference being the duration of the incubation was 2 hours. Digestion by 30 units of the S1 nuclease was performed in the same buffer as described in Example 2 with two exceptions, lanes 2 and 4. In lane 2, 15 units of the enzyme were used, whereas in lane 4 200 mM NaCl and 1 mM of ZnSO4 were added to the buffer. Lane 1: the reference band obtained by digestion with the BamHI restriction enzyme of the pUC 19 plasmid linearized by the CfrlOI restriction enzyme. Lanes 2-4 site-specific digestion by the S1 nuclease of the linearized pT9C plasmid complexed with PNA H-T5CT4-LysNH2 (SEQ ID NO:6). Lanes 5-7: various controls. Lane 8: the same experiment as in lane 3, but using PNA T10 (SEQ ID NO:2) instead of T4CT5 (SEQ ID NO:8). Lane 9: the same experiment as in lane 3, but using PNA T2CT2CT4 (SEQ ID NO:1) instead of T4CT5 (SEQ ID NO:8). Lane 10: the same experiment as in lane 3, but using the pT9C-5 plasmid instead of the pT9C. In the header PNA T5CT4 (SEQ ID NO:6) is labelled as 1, T10 (SEQ ID NO:2) as 2 and T2CT2CT4 (SEQ ID NO:1) as 3.
The bands observed by gel electrophoresis have the same position and width as the band created by the BamHI restriction enzyme. […] Moreover, under the much milder S1 nuclease treatment necessary to generate the data for the pT9CT9C, the yield of double-stranded breaks in the pT9C-5 plasmid was extremely low (lane 10).

[3] = system: pTlO plasmid (dA10/dT10 insert) and corresponding plasmids linearized with CfrlOI; test: Site-specific S1 nuclease digestion of linearized plasmid complexed with PNA; assay type: biochemical; conditions: 145 units S1 nuclease, room temperature; each PNA with its corresponding plasmid
Protocol: PNA H-T10-LysNH2 (SEQ ID NO:2) was synthesized as described in Example 1. A pTlO plasmid was prepared from the pUC19 plasmid by inserting the dA10/dT10 (SEQ ID NO:3) sequence into the BamHl site of the polylinker as per the method of Egholm, N et al., J.A.C.S. 1992 114:1895-1897. The pTlO plasmid was linearized with CfrlOI restriction enzyme in the unique site. To form complex with the PNA, about0.1 μg of the linearized plasmid was incubated with 2 o.u./ml of PNA in 3 μl of the TE buffer (10 mM Tris-HCl; 1 mM EDTA, pH 7.4) at 37° C. To perform the S1 nuclease reaction, 10 μl of Na-Acetate buffer (33 mM NaAc; 50 mM NaCl; 10 mM ZnSO4; 0.5% of glycerol, pH 4.6) and 145 units of S1 nuclease (Sigma) were added and incubated for various time periods at room temperature. The reaction was terminated by adding 1 μl of 0.5 M EDTA and cooling to −20° C. Electrophoresis was performed in 1% agarose gel in the TBE buffer with subsequent staining with ethidium bromide. The results of this example are shown in FIG. 1 wherein the size of the markers are shown as are the incubation time periods. In FIG. 8 Lane 1: control—preincubation of DNA with PNA was performed under conditions unfavorable for complex formation (200 mM of NaCl). Lane 2: the reference band obtained by digestion with BamHI restriction enzyme. Lane 3: reference bands obtained by the digestion with Bgll restriction enzyme. […]

## H-T10LysNH2 [PNA H-T10-LysNH2]
[1]; NaCl
  salt concentration tolerated by complex formed at low salt: at least 500 mM
[1]; TE buffer, two-dimensional gel electrophoresis
  turns of the double helix released upon binding of PNA: 8-10 turns
[2]
  S1 nuclease digestion of pT9CT9C plasmid complexed with PNA: very weak digestion
[3]
  S1 nuclease cutting of linearized plasmid complexed with PNA: a significant fraction of DNA was cut
